According to US20090105283A1, “3-HYDROQUINAZOLIN-4-ONE DERIVATIVES FOR USE AS STEAROYL CoA DESATURASE INHIBITORS” (priority 2007, published 2009):

Biological target: T1, stearoyl-CoA desaturase (SCD) (Rattus norvegicus, UniProt P07308)
T1 construct: The microsomes were quickly thawed and added to assay buffer so that a concentration of 0.4 mg/ml was achieved; from tissue
T1 sequence (P07308 1-358): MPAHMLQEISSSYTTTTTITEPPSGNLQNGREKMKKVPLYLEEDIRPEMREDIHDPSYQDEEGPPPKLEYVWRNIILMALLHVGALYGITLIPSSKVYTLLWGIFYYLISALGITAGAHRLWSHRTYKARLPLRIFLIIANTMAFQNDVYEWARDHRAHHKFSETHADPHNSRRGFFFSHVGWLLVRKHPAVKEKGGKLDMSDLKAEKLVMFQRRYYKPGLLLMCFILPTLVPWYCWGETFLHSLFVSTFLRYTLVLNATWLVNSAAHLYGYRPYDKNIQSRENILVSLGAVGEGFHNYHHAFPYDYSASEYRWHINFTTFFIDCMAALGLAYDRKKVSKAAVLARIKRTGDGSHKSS
Experiment: SCD assay with rat liver microsomes ([3H]stearoyl CoA, adapted from Talamo and Bloch)
Assay type: biochemical
Conditions: Table 1; rat liver microsomes 0.2 mg/ml assay final, [3H]stearoyl CoA substrate, 30 min preincubation, 45 min reaction, room temperature
Outline: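 Liver microsomes came from diet-induced male Sprague Dawley rats and were used at 0.2 mg/ml final. Assay buffer was Tris pH 7.2 with NADH, ATP, CoA, MgCl2 and 0.1% BSA. Compounds were preincubated 30 min, then reacted 45 min at room temperature with [3H]stearoyl-CoA; after TCA stop and Bio-Bead cleanup, supernatant radioactivity was counted by scintillation.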

Going from `CC(C)OC(=O)Nc1ccc2ncn(Cc3ccc(Cl)c(Cl)c3)c(=O)c2c1` [IX, N-{3-[(3,4-dichlorophenyl)methyl]-4-oxo(3-hydroquinazolin-6-yl)}(methylethoxy)carboxamide] to `O=C(CO)Nc1ccc2ncn(Cc3ccc(Cl)c(Cl)c3)c(=O)c2c1` [LXII, N-{3-[(3,4-dichlorophenyl)methyl]-4-oxo(3-hydroquinazolin-6-yl)}-2-hydroxyacetamide], the IC50 falls from 14000 nM to 230 nM (61-fold). The second is the more potent here.

`Cc1cc(C)cc(OCC(=O)Nc2ccc3ncn(Cc4ccc(Cl)c(Cl)c4)c(=O)c3c2)c1` [XX, N-{3-[(3,4-dichlorophenyl)methyl]-4-oxo(3-hydroquinazolin-6-yl)}-2-(3,5-dimethylphenoxy)acetamide] and `O=C(COc1cccnc1)Nc1ccc2ncn(Cc3ccc(Cl)c(Cl)c3)c(=O)c2c1` [XXXVI, N-{3-[(3,4-dichlorophenyl)methyl]-4-oxo(3-hydroquinazolin-6-yl)}-2-(3-pyridyloxy)acetamide] are within 1.5-fold of each other in IC50: 2920 nM for the first, 3100 nM for the second.

`CC(=O)OCC(=O)Nc1ccc2ncn(Cc3cccc(C(F)(F)F)c3)c(=O)c2c1` [XCIV, [N-(4-oxo-3-{[3-(trifluoromethyl)phenyl]methyl}-3-hydroquinazolin-6-yl)carbamoyl]methyl acetate] and `CC(=O)OCC(=O)Nc1ccc2ncn(Cc3ccc(Cl)c(F)c3)c(=O)c2c1` [XCVIII, (N-{3-[(4-chloro-3-fluorophenyl)methyl]-4-oxo-3-hydroquinazolin-6-yl}carbamoyl)methyl acetate] are within 1.5-fold of each other in IC50: 1700 nM for the first, 1320 nM for the second.

Compared with `CC(=O)OCC(=O)Nc1ccc2ncn(Cc3ccc(Cl)c(Cl)c3)c(=O)c2c1` [XLVII, (N-{3-[(3,4-dichlorophenyl)methyl]-4-oxo-3-hydroquinazolin-6-yl}carbamoyl)methyl acetate], `CC(=O)OCC(=O)Nc1ccc2c(=O)n(Cc3ccc(Cl)cc3)cnc2c1` [LXVI, (N-{3-[(4-chlorophenyl)methyl]-4-oxo-3-hydroquinazolin-7-yl}carbamoyl)methyl acetate] is 160-fold higher in IC50: 100 nM for the first, 16400 nM for the second. The first is the more potent here.

Compared with `O=C(Nc1ccc2ncn(Cc3ccc(Cl)c(Cl)c3)c(=O)c2c1)OCc1ccncc1` [LXXIX, N-{3-[(3,4-dichlorophenyl)methyl]-4-oxo(3-hydroquinazolin-6-yl)}(4-pyridylmethoxy)carboxamide], `O=C(Nc1ccc2ncn(Cc3ccc(Cl)c(Cl)c3)c(=O)c2c1)OCc1ccccc1` [I, N-{3-[(3,4-dichlorophenyl)methyl]-4-oxo(3-hydroquinazolin-6-yl)}(phenylmethoxy)carboxamide] is 6.2-fold lower in IC50: 1000 nM for the first, 160 nM for the second.

Compared with `COCCOCCOC(=O)Nc1ccc2ncn(Cc3ccc(Cl)c(Cl)c3)c(=O)c2c1` [XCII, N-{3-[(3,4-dichlorophenyl)methyl]-4-oxo(3-hydroquinazolin-6-yl)}[2-(2-methoxyethoxy)ethoxy]carboxamide], `N#Cc1cccc(COC(=O)Nc2ccc3ncn(Cc4ccc(Cl)c(Cl)c4)c(=O)c3c2)c1` [LXXX, N-{3-[(3,4-dichlorophenyl)methyl]-4-oxo(3-hydroquinazolin-6-yl)}[(3-cyanophenyl)methoxy]carboxamide] is 17-fold lower in IC50: 11700 nM for the first, 670 nM for the second. The second is the more potent here.

First: O=C(CSc1ccncc1)Nc1ccc2ncn(Cc3ccc(Cl)cc3)c(=O)c2c1 [XXXVII, N-{3-[(4-chlorophenyl)methyl]-4-oxo(3-hydroquinazolin-6-yl)}-2-(4-pyridylthio)acetamide]
Second: O=C(COc1ccccc1)Nc1ccc2c(=O)n(Cc3ccc(Cl)c(Cl)c3)cnc2c1 [LIII, N-{3-[(3,4-dichlorophenyl)methyl]-4-oxo(3-hydroquinazolin-7-yl)}-2-phenoxyacetamide]
The IC50 of the first is 4.3-fold higher: 7300 nM for the first, 1690 nM for the second. The second is the more potent here.

Compared with `O=C(Nc1ccc2c(=O)n(Cc3cccc(Cl)c3)cnc2c1)OCc1ccccc1` [LVIII, N-{3-[(3-chlorophenyl)methyl]-4-oxo(3-hydroquinazolin-7-yl)}(phenylmethoxy)carboxamide], `CC(=O)OCC(=O)Nc1ccc2c(=O)n(Cc3ccc(F)c(F)c3)cnc2c1` [CII, (N-{3-[(3,4-difluorophenyl)methyl]-4-oxo-3-hydroquinazolin-7-yl}carbamoyl)methyl acetate] is 31-fold higher in IC50: 250 nM for the first, 7640 nM for the second. The first is the more potent here.

Same assay, conditions: Table 2 (Example 21, procedures of Example 20); rat liver microsomes, [3H]stearoyl CoA substrate

Going from `C[C@H](c1ccc(Cl)c(Cl)c1)n1cnc2cc(NC(=O)CO)ccc2c1=O` [compound 36, (R)—N-(3-(1-(3,4-dichlorophenyl)ethyl)-4-oxo-3,4-dihydroquinazolin-7-yl)-2-hydroxyacetamide] to `CC(c1ccc(Cl)c(Cl)c1)n1cnc2cc(NC(=O)CO)ccc2c1=O` (stereo not shown) [compound 11, N-(3-(1-(3,4-dichlorophenyl)ethyl)-4-oxo-3,4-dihydroquinazolin-7-yl)-2-hydroxyacetamide], the IC50 rises from 58 nM to 170 nM (2.9-fold).

First: CC(=O)Nc1ccc2ncn(Cc3ccc(C(F)(F)F)cc3)c(=O)c2c1 [compound 19, N-(4-oxo-3-(4-(trifluoromethyl)benzyl)-3,4-dihydroquinazolin-6-yl)acetamide]
Second: CC(=O)Nc1ccc2ncn(Cc3ccc(Cl)c(Cl)c3)c(=O)c2c1 [compound 17, N-(3-(3,4-dichlorobenzyl)-4-oxo-3,4-dihydroquinazolin-6-yl)acetamide]
The IC50 of the first is 7.2-fold higher: 28000 nM for the first, 3900 nM for the second.

`O=C(C[C@@H](O)c1ccccc1)Nc1ccc2ncn(Cc3ccc(Cl)c(Cl)c3)c(=O)c2c1` [compound 99, (R)—N-(3-(3,4-dichlorobenzyl)-4-oxo-3,4-dihydroquinazolin-6-yl)-3-hydroxy-3-phenylpropanamide] and `NCC(=O)Nc1ccc2ncn(Cc3ccc(Cl)c(Cl)c3)c(=O)c2c1` [compound 94, 2-amino-N-(3-(3,4-dichlorobenzyl)-4-oxo-3,4-dihydroquinazolin-6-yl)acetamide] are within 1.5-fold of each other in IC50: 1700 nM for the first, 1300 nM for the second.

First: O=C(Nc1ccc2ncn(CCCOc3cc(Cl)ccc3Cl)c(=O)c2c1)OCc1ccccc1 [compound 44, benzyl 3-(3-(2,5-dichlorophenoxy)propyl)-4-oxo-3,4-dihydroquinazolin-6-ylcarbamate]
Second: O=C(Nc1ccc2c(=O)n(CCCOc3cc(Cl)ccc3Cl)cnc2c1)OCc1ccccc1 [compound 50, benzyl 3-(3-(2,5-dichlorophenoxy)propyl)-4-oxo-3,4-dihydroquinazolin-7-ylcarbamate]
The IC50 of the first is 8.2-fold lower: 55 nM for the first, 450 nM for the second. The first is the more potent here.

`O=C(CO)Nc1ccc2ncn(Cc3ccc(Cl)cc3)c(=O)c2c1` [compound 4, N-(3-(4-chlorobenzyl)-4-oxo-3,4-dihydroquinazolin-6-yl)-2-hydroxyacetamide] and `CC(=O)OCC(=O)Nc1ccc2ncn(Cc3ccc(F)c(Cl)c3)c(=O)c2c1` [compound 13, 2-(3-(3-chloro-4-fluorobenzyl)-4-oxo-3,4-dihydroquinazolin-6-ylamino)-2-oxoethyl acetate] are within 1.5-fold of each other in IC50: 1200 nM for the first, 1700 nM for the second.

Compared with `O=C(CO)Nc1ccc2ncn(CCCOc3ccccc3)c(=O)c2c1` [compound 68, 2-hydroxy-N-(4-oxo-3-(3-phenoxypropyl)-3,4-dihydroquinazolin-6-yl)acetamide], `O=C(CO)Nc1ccc2ncn(CCCOc3ccccc3Cl)c(=O)c2c1` [compound 60, N-(3-(3-(2-chlorophenoxy)propyl)-4-oxo-3,4-dihydroquinazolin-6-yl)-2-hydroxyacetamide] is 51-fold lower in IC50: 23000 nM for the first, 450 nM for the second.

First: CC(=O)OCC(=O)Nc1ccc2ncn(Cc3ccc(C)c(C)c3)c(=O)c2c1 [compound 21, 2-(3-(3,4-dimethylbenzyl)-4-oxo-3,4-dihydroquinazolin-6-ylamino)-2-oxoethyl acetate]
Second: CC(=O)OCC(=O)Nc1ccc2ncn(Cc3ccc(F)c(F)c3)c(=O)c2c1 [compound 1, 2-(3-(3,4-difluorobenzyl)-4-oxo-3,4-dihydroquinazolin-6-ylamino)-2-oxoethyl acetate]
The IC50 of the first is 4.5-fold lower: 470 nM for the first, 2100 nM for the second.

Compared with `O=C(CO)Nc1ccc2ncn(CCCc3ccccc3Cl)c(=O)c2c1` [compound 56, N-(3-(3-(2-chlorophenyl)propyl)-4-oxo-3,4-dihydroquinazolin-6-yl)-2-hydroxyacetamide], `O=C(CO)Nc1ccc2ncn(CCCOc3cc(C(F)(F)F)ccc3Cl)c(=O)c2c1` [compound 66, N-(3-(3-(2-chloro-5-(trifluoromethyl)phenoxy)propyl)-4-oxo-3,4-dihydroquinazolin-6-yl)-2-hydroxyacetamide] is 26-fold higher in IC50: 430 nM for the first, 11000 nM for the second. The first is the more potent here.

Compared with `O=C(NCCCO)c1ccc2c(=O)n(Cc3ccc(Cl)c(Cl)c3)cnc2c1` [compound 86, 3-(3,4-dichlorobenzyl)-N-(3-hydroxypropyl)-4-oxo-3,4-dihydroquinazoline-7-carboxamide], `CNC(=O)c1ccc2c(=O)n(Cc3ccc(Cl)c(Cl)c3)cnc2c1` [compound 88, 3-(3,4-dichlorobenzyl)-N-methyl-4-oxo-3,4-dihydroquinazoline-7-carboxamide] is 5.1-fold lower in IC50: 7700 nM for the first, 1500 nM for the second. The second is the more potent here.

First: CC(=O)OCC(=O)Nc1ccc2ncn(Cc3ccc(Cl)c(C(F)(F)F)c3)c(=O)c2c1 [compound 6, 2-(3-(4-chloro-3-(trifluoromethyl)benzyl)-4-oxo-3,4-dihydroquinazolin-6-ylamino)-2-oxoethyl acetate]
Second: O=C(CO)Nc1ccc2ncn(CCCNS(=O)(=O)c3ccccc3C(F)(F)F)c(=O)c2c1 [compound 73, 2-hydroxy-N-(4-oxo-3-(3-(2-(trifluoromethyl)phenylsulfonamido)propyl)-3,4-dihydroquinazolin-6-yl)acetamide]
The IC50 of the first is 110-fold lower: 130 nM for the first, 14000 nM for the second. The first is the more potent here.

Work on `COCCNC(=O)c1ccc2ncn(Cc3ccc(Cl)c(Cl)c3)c(=O)c2c1` [compound 82, 3-(3,4-dichlorobenzyl)-N-(2-methoxyethyl)-4-oxo-3,4-dihydroquinazoline-6-carboxamide] yielded an IC50 of 1500 nM.
